tested on: Pyricularia oryzae; test: microbe, parasite or virus in culture; assay type: cell-based; settings: 1 ppm; inhibition of fungal growth, liquid culture, 5 days incubation

In order of rising Efficacy:
1. C[Si](C)(C)c1cc(F)ccc1Oc1ccnc2c(Cl)cccc12 [CMP2, 8-chloro-4-[4-fluoro-2-(trimethylsilyl)phenoxy]quinoline, reference compound]  0%
2. C[Si](C)(C)c1cc(F)ccc1Oc1cnc2c(Cl)cccc2c1 [I.019]  45%

same assay, conditions: 4 ppm of active ingredient; 5 days incubation

With `C[Si](C)(C)c1cc(F)ccc1Oc1ccnc2c(Cl)cccc12` [CMP2, 8-chloro-4-[4-fluoro-2-(trimethylsilyl)phenoxy]quinoline, reference compound] the “efficacy (inhibition of fungal growth)” value was “much lower efficacy”.

same assay, conditions: 4 ppm; inhibition of fungal growth, liquid culture, 5 days incubation

In order of falling Efficacy:
1. C[Si](C)(C)c1cc(F)ccc1Oc1cnc2c(Cl)cccc2c1 [I.019]  98%
2. C[Si](C)(C)c1cc(F)ccc1Oc1ccnc2c(Cl)cccc12 [CMP2, 8-chloro-4-[4-fluoro-2-(trimethylsilyl)phenoxy]quinoline, reference compound]  46%

same assay, conditions: 20 ppm; inhibition of fungal growth, liquid culture, 5 days incubation

In order of falling Efficacy:
1. C[Si](C)(C)c1cc(F)ccc1Oc1cnc2c(Cl)cccc2c1 [I.019]  97%
2. C[Si](C)(C)c1cc(F)ccc1Oc1ccnc2c(Cl)cccc12 [CMP2, 8-chloro-4-[4-fluoro-2-(trimethylsilyl)phenoxy]quinoline, reference compound]  93%

same assay, conditions: Pyricularia oryzae, 120 h, read-out: efficacy (inhibition of fungal growth)

`C[Si](C)(C)c1ccccc1Oc1cnc2ccccc2c1` [I.001, 3-[2-(trimethylsilyl)phenoxy]quinoline] and `C[Si]1(c2c(F)cccc2Oc2cnc3ccccc3c2)CCC1` [I.008, 3-[3-fluoro-2-(1-methylsiletan-1-yl)phenoxy]quinoline] fall in the same range of inhibition at 20 ppm: 90 to 100% for the first, 90 to 100% for the second.

First: C[Si]1(C)OCc2cccc(Nc3cnc4ccccc4c3)c21 [I.010, N-(1,1-dimethyl-1,3-dihydro-2,1-benzoxasilol-7-yl)quinolin-3-amine]
Second: Cc1nc2c(F)c(F)ccc2cc1Oc1ccccc1[Si](C)(C)O [I.026, {2-[(7,8-difluoro-2-methylquinolin-3-yl)oxy]phenyl}(dimethyl)silanol]
The inhibition at 20 ppm of the first is lower: 80 to 89% for the first, 90 to 100% for the second.

`Cc1nc2c(F)c(F)ccc2cc1Oc1cccc(F)c1[Si](C)(C)F` [I.032, 7,8-difluoro-3-{3-fluoro-2-[fluoro(dimethyl)silyl]phenoxy}-2-methylquinoline] showed an inhibition at 20 ppm of 90 to 100%.

tested on: not listed separately; test: log P by HPLC on reversed-phase column (C18), EEC Directive 79/831 Annex V.A8; assay type: physicochemical; settings: Method A: 40° C., 0.1% aqueous formic acid and acetonitrile
Procedure: In table 1, the log P values were determined in accordance with EEC Directive 79/831 Annex V.A8 by HPLC (High Performance Liquid Chromatography) on a reversed-phase column (C18), using the methods described below:
Method A: temperature: 40° C.; mobile phases: 0.1% aqueous formic acid and acetonitrile; linear gradient from 10% acetonitrile to 95% acetonitrile;
Method B: temperature: 40° C.; mobile phases: 0.001 molar ammonium acetate solution in water and acetonitrile; linear gradient from 10% acetonitrile to 95% acetonitrile.
Calibration was carried out using unbranched alkan-2-ones (comprising 3 to 16 carbon atoms) with known log P values (determination of the log P values by the retention times using linear interpolation between two successive alkanones). lambda-max-values were determined using UV-spectra from 200 nm to 400 nm and the peak values of the chromatographic signals.

In the case of `C[Si](C)(C)c1cc(F)ccc1Oc1cnc2c(Cl)cccc2c1` [I.019], the logP is reported as 5.62.

same assay, conditions: logP Method A

In order of rising logP:
1. Nc1ccccc1Nc1cnc2ccccc2c1 [IVa.01]  1.28
2. O=[N+]([O-])c1ccccc1Oc1cnc2ccccc2c1 [Va.07]  1.62
3. Cc1nc2ccccc2cc1Oc1ccccc1N [IVa.07]  1.66
4. Cc1nc2ccccc2cc1Oc1cccc(F)c1N [IVa.02]  2.15
5. Cc1nc2ccccc2cc1Oc1ccccc1[N+](=O)[O-] [Va.08]  2.64
6. Cc1nc2c(F)c(F)ccc2nc1Oc1c(F)cccc1Br [IIb.04]  2.67
7. Nc1ccccc1Oc1cnc2c(F)c(F)ccc2c1 [IVa.03]  2.71
8. Cc1nc2ccccc2cc1Oc1cccc(F)c1 [VIIa.04]  2.96
9. Nc1c(F)cccc1Oc1cnc2c(F)c(F)ccc2c1 [IVa.04]  3.02
10. O=[N+]([O-])c1ccccc1Oc1cnc2c(F)c(F)ccc2c1 [Va.03]  3.06
11. O=[N+]([O-])c1c(F)cccc1Oc1cnc2ccccc2c1 [Va.05]  3.13
12. Cc1nc2ccccc2cc1Oc1cccc(F)c1[N+](=O)[O-] [Va.06]  3.15
13. Cc1nc2c(F)c(F)ccc2cc1Oc1cccc(F)c1N [IVa.06]  3.27
14. O=[N+]([O-])c1c(F)cccc1Oc1cnc2c(F)c(F)ccc2c1 [Va.01]  3.35
15. Cc1nc2c(F)c(F)ccc2cc1Oc1cccc(F)c1[N+](=O)[O-] [Va.02]  3.64
16. N#Cc1ccc(F)c(Br)c1Oc1cnc2c(F)c(F)ccc2n1 [IIb.21]  3.72
17. Fc1cccc(Oc2cnc3ccccc3n2)c1Br [IIb.14]  3.78
18. N#Cc1cc(Br)c(Oc2cnc3c(F)c(F)ccc3n2)cc1F [IIb.19]  3.81
19. Cc1nc2c(F)c(F)ccc2nc1Oc1cccc(C#N)c1Br [IIb.22]  3.83
20. Fc1ccc2nc(Oc3ccccc3Br)cnc2c1F [IIb.01]  3.92
21. Fc1cccc(Oc2cnc3c(F)c(F)ccc3n2)c1Br [IIb.15]  3.97
22. Cc1nc2c(F)c(F)ccc2nc1Oc1cc(C#N)ccc1Br [IIb.20]  4.03
23. Cc1nc2ccccc2nc1Oc1cccc(F)c1Br [IIb.17]  4.11
24. COc1cccc(Oc2nc3ccc(F)c(F)c3nc2C)c1Br [IIb.13]  4.19
25. Cc1nc2c(F)c(F)ccc2nc1Oc1ccccc1Br [IIb.02]  4.38
26. Cc1nc2c(F)c(F)ccc2nc1Oc1cccc(F)c1Br [IIb.16]  4.44
27. Cc1nc2c(F)c(F)ccc2nc1Oc1ccc(F)cc1Br [IIb.10]  4.54
28. CCOc1nc2ccccc2cc1Oc1cccc(F)c1 [VIIa.02]  4.74
29. Cc1cccc(Br)c1Oc1nc2ccc(F)c(F)c2nc1C [IIb.03]  4.80
30. Cc1nc2c(F)c(F)ccc2nc1Oc1cccc(Cl)c1Br [IIb.18]  4.82
31. Cc1cccc(Oc2nc3ccc(F)c(F)c3nc2C)c1Br [IIb.12]  4.85
32. Cc1nc2c(F)c(F)ccc2nc1Oc1c(Cl)cccc1Br [IIb.05]  4.87
33. Cc1ccc(Oc2nc3ccc(F)c(F)c3nc2C)c(Br)c1 [IIb.09]  4.92
34. CSc1nc2ccccc2cc1Oc1cccc(F)c1 [VIIa.03]  4.92
35. Cc1nc2c(F)c(F)ccc2nc1Oc1cccc(OC(F)(F)F)c1Br [IIb.23]  5.08
36. C[Si](C)(Cc1ccccc1)c1ccccc1O [IXa.06]  5.14
37. Cc1nc2c(F)c(F)ccc2nc1Oc1ccc(Cl)cc1Br [IIb.11]  5.16
38. C[Si](C)(c1ccccc1)c1ccccc1CBr [XIa.03]  5.46
39. CC1(C)OB(Cc2ccccc2[Si](C)(C)C)OC1(C)C [XIIa.01]  5.68

same assay, conditions: logP Method B

For `CC[Si](C)(C)c1ccccc1O` [IXa.04], the logP was 3.90.

same assay, conditions: reversed-phase HPLC column (C18), Method A: 40° C., 0.1% aqueous formic acid and acetonitrile

In order of falling chromatographic logP:
1. C[Si](C)(c1ccc(Cl)cc1)c1ccccc1CBr [XIa.06, [2-(bromomethyl)phenyl](4-chlorophenyl)dimethylsilane]  5.94
2. C[Si]1(c2c(F)cccc2Oc2cnc3ccccc3c2)CCC1 [I.008, 3-[3-fluoro-2-(1-methylsiletan-1-yl)phenoxy]quinoline]  5.39
3. C[Si](C)(C)c1ccccc1Oc1cnc2ccccc2c1 [I.001, 3-[2-(trimethylsilyl)phenoxy]quinoline]  5.17
4. Cc1nc2c(F)c(F)ccc2cc1Oc1cccc(F)c1[Si](C)(C)F [I.032, 7,8-difluoro-3-{3-fluoro-2-[fluoro(dimethyl)silyl]phenoxy}-2-methylquinoline]  4.75
5. Fc1cccc(Oc2cc3ccccc3nc2Cl)c1 [VIIa.01, 2-chloro-3-(3-fluorophenoxy)quinoline]  3.99
6. Cc1nc2c(F)c(F)ccc2cc1Oc1ccccc1[Si](C)(C)O [I.026, {2-[(7,8-difluoro-2-methylquinolin-3-yl)oxy]phenyl}(dimethyl)silanol]  3.51
7. Cc1nc2c(F)c(F)ccc2cc1Oc1ccccc1[N+](=O)[O-] [Va.04, 7,8-difluoro-2-methyl-3-(2-nitrophenoxy)quinoline]  3.37
8. Fc1cccc(Oc2cnc3ccccc3c2)c1 [VIIa.05, 3-(3-fluorophenoxy)quinoline]  3.21
9. Cc1nc2c(F)c(F)ccc2cc1Oc1ccccc1N [IVa.05, 2-[(7,8-difluoro-2-methylquinolin-3-yl)oxy]aniline]  2.99
10. [O-][n+]1cc(Oc2cccc(F)c2)cc2ccccc21 [VIIa.06, 3-(3-fluorophenoxy)quinoline 1-oxide]  2.14
11. CC(=O)COc1ccccc1[Si](C)(C)C [XIV.01, 1-[2-(trimethylsilyl)phenoxy]acetone]  1.39

same assay, conditions: reversed-phase HPLC column (C18), Method B: 40° C., 0.001 molar ammonium acetate solution in water and acetonitrile

For `C[Si]1(C)OCc2cccc(Nc3cnc4ccccc4c3)c21` [I.010, N-(1,1-dimethyl-1,3-dihydro-2,1-benzoxasilol-7-yl)quinolin-3-amine], the chromatographic logP was 3.15.

same assay, conditions: reversed-phase HPLC column (C18), logP Method A

In order of rising chromatographic logP:
1. CC(=O)COc1ccccc1[Si](C)(C)C [XIV.01, 1-[2-(trimethylsilyl)phenoxy]acetone]  1.39
2. OC(c1cccc(F)c1)c1cnc2ccccc2c1 (stereo not shown) [VII.01A]  1.54
3. [O-][S+](c1cccc(F)c1)c1cnc2ccccc2c1 (stereo not shown) [VII.04A]  2.1
4. [O-][n+]1cc(Oc2cccc(F)c2)cc2ccccc21 [VIIa.06, 3-(3-fluorophenoxy)quinoline 1-oxide]  2.14
5. O=S(=O)(c1cccc(F)c1)c1cnc2ccccc2c1 [VII.05A]  2.68
6. O=C(c1cccc(F)c1)c1cnc2ccccc2c1 [VII.02A]  2.73
7. Cc1nc2c(F)c(F)ccc2cc1Oc1ccccc1N [IVa.05, 2-[(7,8-difluoro-2-methylquinolin-3-yl)oxy]aniline]  2.99
8. Fc1cccc(Oc2cnc3ccccc3c2)c1 [VIIa.05, 3-(3-fluorophenoxy)quinoline]  3.21
9. Cc1nc2c(F)c(F)ccc2cc1Oc1ccccc1[N+](=O)[O-] [Va.04, 7,8-difluoro-2-methyl-3-(2-nitrophenoxy)quinoline]  3.42
10. Fc1cccc(Nc2cc3ccccc3nc2C(F)F)c1 [VII.03A]  3.68
11. Fc1cccc(Oc2cc3ccccc3nc2Cl)c1 [VIIa.01, 2-chloro-3-(3-fluorophenoxy)quinoline]  3.99
12. CC[Si](CC)(CC)c1c(O)cccc1F [IX.02A]  4.69
13. CC[Si](CC)(CC)c1ccccc1O [IX.01A]  4.72
14. C[Si](C)(c1ccc(Cl)cc1)c1ccccc1CBr [XIa.06, [2-(bromomethyl)phenyl](4-chlorophenyl)dimethylsilane]  5.94
